From patent publication US12378224B2 (Dong-A Socio Holdings Co., Ltd., priority 2016, dated 2025)

Each compound was assayed against human MER (528-end) (Homo sapiens (Human), UniProt Q12866) (assay: HTRF Kinase Activity Biochemical Assay (KinEASE-TK)). Settings: 10 uM ATP.
Procedure, shortened: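 Activity read-out is the HTRF ratio (665 nm over 620 nm emission, ×10,000; excitation 340 nm) after 1 h detection with 0.375 nM Eu3+-cryptate anti-TK antibody plus 0.062 uM SA-XL665. Preceding kinase step: human MER (528-end), biotinylated TK substrate, 1 h, room temperature.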

human MER (528-end), sequence (Q12866 528-999 limits assumed): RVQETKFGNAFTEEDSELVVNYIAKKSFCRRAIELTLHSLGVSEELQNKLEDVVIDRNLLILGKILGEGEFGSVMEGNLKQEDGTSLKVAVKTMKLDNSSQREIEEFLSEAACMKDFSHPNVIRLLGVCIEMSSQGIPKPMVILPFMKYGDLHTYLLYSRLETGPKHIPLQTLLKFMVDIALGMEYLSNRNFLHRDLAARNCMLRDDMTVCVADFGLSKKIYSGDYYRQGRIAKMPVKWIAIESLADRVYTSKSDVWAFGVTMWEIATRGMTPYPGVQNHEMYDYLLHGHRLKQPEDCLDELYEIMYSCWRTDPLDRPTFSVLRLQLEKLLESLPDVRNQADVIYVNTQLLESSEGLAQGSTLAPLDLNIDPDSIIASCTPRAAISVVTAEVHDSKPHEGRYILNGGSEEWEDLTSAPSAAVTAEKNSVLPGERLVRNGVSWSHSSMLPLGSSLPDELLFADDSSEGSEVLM

COc1ccccc1-c1ccc(C(=O)N2CC[C@@H](NC(=O)c3cc(-c4cnn(C)c4)cnc3N)C2)cc1 [Example 354, (R)-2-amino-N-(1-(2′-methoxy-[1,1′-biphenyl]-4-carbonyl)pyrrolidin-3-yl)-5-(1-methyl-1H-pyrazol-4-yl)nicotinamide] and Cn1cc(-c2cnc(N)c(C(=O)N[C@@H]3CCN(C(=O)c4ccc(-c5ccccc5Cl)cc4)C3)c2)cn1 [Example 359, (R)-2-amino-N-(1-(2′-chloro-[1,1′-biphenyl]-4-carbonyl)pyrrolidin-3-yl)-5-(1-methyl-1H-pyrazol-4-yl)nicotinamide] fall in the same range of IC50: 10 to 100 nM for the first, 10 to 100 nM for the second.

Compared with Cn1cc(-c2cnc(N)c(C(=O)N[C@@H]3CCN(C(=O)c4ccc(-c5ccc(F)nc5)cc4)C3)c2)cn1 [Example 357, (R)-2-amino-N-(1-(4-(6-fluoropyridin-3-yl)benzoyl)pyrrolidin-3-yl)-5-(1-methyl-1H-pyrazol-4-yl)nicotinamide], Cn1cc(-c2cnc(N)c(C(=O)N[C@@H]3CCN(C(=O)c4ccc(-c5ccc(Cl)c(Cl)c5)cc4)C3)c2)cn1 [Example 362, (R)-2-amino-N-(1-(3′,4′-dichloro-[1,1′-biphenyl]-4-carbonyl)pyrrolidin-3-yl)-5-(1-methyl-1H-pyrazol-4-yl)nicotinamide] is lower in IC50: over 1000 nM for the first, 100 to 1000 nM for the second. The second is the more potent here.

Cn1cc(-c2cnc(N)c(C(=O)N[C@@H]3CCN(C(=O)c4ccc(-c5ccsc5)cc4)C3)c2)cn1 [Example 358, (R)-2-amino-5-(1-methyl-1H-pyrazol-4-yl)-N-(1-(4-(thiophen-3-yl)benzoyl)pyrrolidin-3-yl)nicotinamide] and Cn1cc(-c2cnc(N)c(C(=O)N[C@@H]3CCN(C(=O)c4ccc(-c5ccc(O)cc5)cc4)C3)c2)cn1 [Example 380, (R)-2-amino-N-(1-(4′-hydroxy-[1,1′-biphenyl]-4-carbonyl)pyrrolidin-3-yl)-5-(1-methyl-1H-pyrazol-4-yl)nicotinamide] fall in the same range of IC50: 100 to 1000 nM for the first, 100 to 1000 nM for the second.

Compared with Cn1cc(-c2cnc(N)c(C(=O)N[C@@H]3CCN(C(=O)c4ccc(-c5cccc(Cl)c5)cc4)C3)c2)cn1 [Example 360, (R)-2-amino-N-(1-(3′-chloro-[1,1′-biphenyl]-4-carbonyl)pyrrolidin-3-yl)-5-(1-methyl-1H-pyrazol-4-yl)nicotinamide], Cn1cc(-c2cnc(N)c(C(=O)N[C@@H]3CCN(C(=O)c4ccc(-c5ccc(Cl)cc5)cc4)C3)c2)cn1 [Example 377, (R)-2-amino-N-(1-(4′-chloro-[1,1′-biphenyl]-4-carbonyl)pyrrolidin-3-yl)-5-(1-methyl-1H-pyrazol-4-yl)nicotinamide] is higher in IC50: 10 to 100 nM for the first, 100 to 1000 nM for the second. The first is the more potent here.

Cn1cc(-c2cnc(N)c(C(=O)N[C@@H]3CCN(C(=O)c4ccc(-c5ccc(Cl)cc5Cl)cc4)C3)c2)cn1 [Example 361, (R)-2-amino-N-(1-(2′,4′-dichloro-[1,1′-biphenyl]-4-carbonyl)pyrrolidin-3-yl)-5-(1-methyl-1H-pyrazol-4-yl)nicotinamide] and Cn1cc(-c2cnc(N)c(C(=O)N[C@@H]3CCN(C(=O)c4ccc(-c5cc(Cl)ccc5Cl)cc4)C3)c2)cn1 [Example 367, (R)-2-amino-N-(1-(2′,5′-dichloro-[1,1′-biphenyl]-4-carbonyl)pyrrolidin-3-yl)-5-(1-methyl-1H-pyrazol-4-yl)nicotinamide] fall in the same range of IC50: 10 to 100 nM for the first, 10 to 100 nM for the second.

Cn1cc(-c2cnc(N)c(C(=O)N[C@@H]3CCN(C(=O)c4ccc(-c5cc(Cl)cc(Cl)c5)cc4)C3)c2)cn1 [Example 363, (R)-2-amino-N-(1-(3′,5′-dichloro-[1,1′-biphenyl]-4-carbonyl)pyrrolidin-3-yl)-5-(1-methyl-1H-pyrazol-4-yl)nicotinamide] and Cn1cc(-c2cnc(N)c(C(=O)N[C@@H]3CCN(C(=O)c4ccc(-c5c(Cl)cccc5Cl)cc4)C3)c2)cn1 [Example 368, (R)-2-amino-N-(1-(2′,6′-dichloro-[1,1′-biphenyl]-4-carbonyl)pyrrolidin-3-yl)-5-(1-methyl-1H-pyrazol-4-yl)nicotinamide] fall in the same range of IC50: 100 to 1000 nM for the first, 100 to 1000 nM for the second.

Cn1cc(-c2cnc(N)c(C(=O)N[C@@H]3CCN(C(=O)c4ccc(-c5ccc(C(F)(F)F)cc5)cc4)C3)c2)cn1 [Example 371, (R)-2-amino-5-(1-methyl-1H-pyrazol-4-yl)-N-(1-(4′-(trifluoromethyl)-[1,1′-biphenyl]-4-carbonyl)pyrrolidin-3-yl)nicotinamide] and Cn1cc(-c2cnc(N)c(C(=O)N[C@@H]3CCN(C(=O)c4ccc(-c5ccc(C(C)(C)C)cc5)cc4)C3)c2)cn1 [Example 378, (R)-2-amino-N-(1-(4′-(tert-butyl)-[1,1′-biphenyl]-4-carbonyl)pyrrolidin-3-yl)-5-(1-methyl-1H-pyrazol-4-yl)nicotinamide] cannot be ordered by IC50: over 1000 nM for the first, over 1000 nM for the second.

Compared with Cn1cc(-c2cnc(N)c(C(=O)N[C@@H]3CCN(C(=O)c4ccc(-c5ccc(OCc6ccccc6)cc5)cc4)C3)c2)cn1 [Example 372, (R)-2-amino-N-(1-(4′-(benzyloxy)-[1,1′-biphenyl]-4-carbonyl)pyrrolidin-3-yl)-5-(1-methyl-1H-pyrazol-4-yl)nicotinamide], Cn1cc(-c2cnc(N)c(C(=O)N[C@@H]3CCN(C(=O)c4ccc(-c5ccccc5Br)cc4)C3)c2)cn1 [Example 373, (R)-2-amino-N-(1-(2′-bromo-[1,1′-biphenyl]-4-carbonyl)pyrrolidin-3-yl)-5-(1-methyl-1H-pyrazol-4-yl)nicotinamide] is lower in IC50: over 1000 nM for the first, 10 to 100 nM for the second. The second is the more potent here.

Cn1cc(-c2cnc(N)c(C(=O)N[C@@H]3CCN(C(=O)c4ccc(-c5ccccc5O)cc4)C3)c2)cn1 [Example 375, (R)-2-amino-N-(1-(2′-hydroxy-[1,1′-biphenyl]-4-carbonyl)pyrrolidin-3-yl)-5-(1-methyl-1H-pyrazol-4-yl)nicotinamide] and Cc1c(N)cccc1-c1ccc(C(=O)N2CC[C@@H](NC(=O)c3cc(-c4cnn(C)c4)cnc3N)C2)cc1 [Example 376, (R)-2-amino-N-(1-(3′-amino-2′-methyl-[1,1′-biphenyl]-4-carbonyl)pyrrolidin-3-yl)-5-(1-methyl-1H-pyrazol-4-yl)nicotinamide] fall in the same range of IC50: 100 to 1000 nM for the first, 100 to 1000 nM for the second.

First: CN1CCN(c2ccc(-c3ccc(C(=O)N4CC[C@@H](NC(=O)c5cc(-c6cnn(C)c6)cnc5N)C4)cc3)cc2)CC1 [Example 383, (R)-2-amino-5-(1-methyl-1H-pyrazol-4-yl)-N-(1-(4′-(4-methylpiperazin-1-yl)-[1,1′-biphenyl]-4-carbonyl)pyrrolidin-3-yl)nicotinamide]
Second: CN1CCN(Cc2ccc(-c3ccc(C(=O)N4CC[C@@H](NC(=O)c5cc(-c6cnn(C)c6)cnc5N)C4)cc3)cc2)CC1 [Example 385, (R)-2-amino-5-(1-methyl-1H-pyrazol-4-yl)-N-(1-(4′-((4-methylpiperazin-1-yl)methyl)-[1,1′-biphenyl]-4-carbonyl)pyrrolidin-3-yl)nicotinamide]
The IC50 of the first is higher: over 1000 nM for the first, 10 to 100 nM for the second. The second is the more potent here.

First: Cn1cc(-c2cnc(N)c(C(=O)N[C@@H]3CCN(C(=O)c4ccc(-c5ccc(C(C)(C)N6CCNCC6)cc5)cc4)C3)c2)cn1 [Example 384, (R)-2-amino-5-(1-methyl-1H-pyrazol-4-yl)-N-(1-(4′-(2-(piperazin-1-yl)propan-2-yl)-[1,1′-biphenyl]-4-carbonyl)pyrrolidin-3-yl)nicotinamide]
Second: CN1CCN(C(C)(C)c2ccc(-c3ccc(C(=O)N4CC[C@@H](NC(=O)c5cc(-c6cnn(C)c6)cnc5N)C4)cc3)cc2)CC1 [Example 386, (R)-2-amino-5-(1-methyl-1H-pyrazol-4-yl)-N-(1-(4′-(2-(4-methylpiperazin-1-yl)propan-2-yl)-[1,1′-biphenyl]-4-carbonyl)pyrrolidin-3-yl)nicotinamide]
The IC50 of the first is lower: 10 to 100 nM for the first, 100 to 1000 nM for the second.

Cn1cc(-c2cnc(N)c(C(=O)N[C@@H]3CCN(C(=O)c4ccc(-c5ccc(C(C)(C)N6CCN(CCO)CC6)cc5)cc4)C3)c2)cn1 [Example 387, (R)-2-amino-N-(1-(4′-(2-(4-(2-hydroxyethyl)piperazin-1-yl)propan-2-yl)-[1,1′-biphenyl]-4-carbonyl)pyrrolidin-3-yl)-5-(1-methyl-1H-pyrazol-4-yl)nicotinamide] and Cn1cc(-c2cnc(N)c(C(=O)N[C@@H]3CCN(C(=O)c4ccc(-c5cccc(CN6CCN(CCO)CC6)c5)cc4)C3)c2)cn1 [Example 389, (R)-2-amino-N-(1-(3′-((4-(2-hydroxyethyl)piperazin-1-yl)methyl)-[1,1′-biphenyl]-4-carbonyl)pyrrolidin-3-yl)-5-(1-methyl-1H-pyrazol-4-yl)nicotinamide] fall in the same range of IC50: 100 to 1000 nM for the first, 100 to 1000 nM for the second.

Compared with CN1CCN(Cc2cccc(-c3ccc(C(=O)N4CC[C@@H](NC(=O)c5cc(-c6cnn(C)c6)cnc5N)C4)cc3)c2)CC1 [Example 388, (R)-2-amino-5-(1-methyl-1H-pyrazol-4-yl)-N-(1-(3′-((4-methylpiperazin-1-yl)methyl)-[1,1′-biphenyl]-4-carbonyl)pyrrolidin-3-yl)nicotinamide], CN1CCN(Cc2ccc(-c3cccc(C(=O)N4CC[C@@H](NC(=O)c5cc(-c6cnn(C)c6)cnc5N)C4)c3)cc2)CC1 [Example 390, (R)-2-amino-5-(1-methyl-1H-pyrazol-4-yl)-N-(1-(4′-((4-methylpiperazin-1-yl)methyl)-[1,1′-biphenyl]-3-carbonyl)pyrrolidin-3-yl)nicotinamide] is higher in IC50: 100 to 1000 nM for the first, over 1000 nM for the second.

First: Cn1cc(-c2cnc(N)c(C(=O)N[C@@H]3CCN(C(=O)c4ccc(-c5ccccc5Cl)cn4)C3)c2)cn1 [Example 395, (R)-2-amino-N-(1-(5-(2-chlorophenyl)picolinoyl)pyrrolidin-3-yl)-5-(1-methyl-1H-pyrazol-4-yl)nicotinamide]
Second: Cn1cc(-c2cnc(N)c(C(=O)N[C@@H]3CCN(C(=O)c4ccc(-c5ccccc5)cn4)C3)c2)cn1 [Example 396, (R)-2-amino-5-(1-methyl-1H-pyrazol-4-yl)-N-(1-(5-phenylpicolinoyl)pyrrolidin-3-yl)nicotinamide]
The IC50 of the first is lower: 100 to 1000 nM for the first, over 1000 nM for the second.

Work on Cn1cc(-c2cnc(N)c(C(=O)N[C@@H]3CCN(C(=O)c4ccc(-c5ccccc5Cl)nc4)C3)c2)cn1 [Example 397, (R)-2-amino-N-(1-(6-(2-chlorophenyl)nicotinoyl)pyrrolidin-3-yl)-5-(1-methyl-1H-pyrazol-4-yl)nicotinamide] yielded an IC50 of 100 to 1000 nM.
